For series [1], the target named is T1, Protein deacetylase HDAC6 (Homo sapiens, UniProt Q9UBN7).
T1 sequence (Q9UBN7 whole entry): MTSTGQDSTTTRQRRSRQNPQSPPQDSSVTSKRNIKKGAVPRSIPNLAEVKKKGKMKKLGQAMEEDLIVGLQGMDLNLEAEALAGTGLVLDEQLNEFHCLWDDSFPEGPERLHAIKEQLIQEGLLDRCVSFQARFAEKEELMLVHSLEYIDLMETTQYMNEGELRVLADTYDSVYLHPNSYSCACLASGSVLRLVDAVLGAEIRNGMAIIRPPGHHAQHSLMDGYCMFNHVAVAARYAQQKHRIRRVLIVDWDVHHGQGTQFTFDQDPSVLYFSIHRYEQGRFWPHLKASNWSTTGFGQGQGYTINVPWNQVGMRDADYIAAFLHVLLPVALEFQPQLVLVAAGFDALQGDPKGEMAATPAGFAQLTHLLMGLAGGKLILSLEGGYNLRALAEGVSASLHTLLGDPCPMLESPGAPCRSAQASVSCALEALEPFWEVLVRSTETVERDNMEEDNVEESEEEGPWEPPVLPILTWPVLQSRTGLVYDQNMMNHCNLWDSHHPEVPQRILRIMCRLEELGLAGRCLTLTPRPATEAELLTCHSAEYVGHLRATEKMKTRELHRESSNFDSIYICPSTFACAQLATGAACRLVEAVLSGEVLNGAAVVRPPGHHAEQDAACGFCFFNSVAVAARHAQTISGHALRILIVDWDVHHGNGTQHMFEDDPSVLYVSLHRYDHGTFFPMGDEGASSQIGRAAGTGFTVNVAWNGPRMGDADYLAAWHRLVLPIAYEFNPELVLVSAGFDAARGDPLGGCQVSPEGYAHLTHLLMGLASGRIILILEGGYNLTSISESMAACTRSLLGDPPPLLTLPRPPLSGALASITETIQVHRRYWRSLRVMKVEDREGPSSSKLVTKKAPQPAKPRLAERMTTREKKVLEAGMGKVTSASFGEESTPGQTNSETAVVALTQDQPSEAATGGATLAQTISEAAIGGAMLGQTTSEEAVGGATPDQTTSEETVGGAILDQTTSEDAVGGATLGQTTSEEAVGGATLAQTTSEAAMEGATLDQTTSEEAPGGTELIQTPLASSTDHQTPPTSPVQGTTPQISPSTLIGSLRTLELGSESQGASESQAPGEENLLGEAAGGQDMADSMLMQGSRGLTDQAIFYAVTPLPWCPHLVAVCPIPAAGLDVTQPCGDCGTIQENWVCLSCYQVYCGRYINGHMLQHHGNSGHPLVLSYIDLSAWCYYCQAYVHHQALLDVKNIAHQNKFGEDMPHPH
In words: Inhibition of full length N-terminal GST-tagged human HDAC6 expressed in baculovirus expression system using ZMAL as substrate incubated for 90 mins by fluorescence assay.

In a further series the test system is Ca9-22. In words: Antiproliferative activity against human Ca9-22 cells assessed as reduction in cell viability measured after 48 hrs by alamar blue dye based spectrofluorometry. Format: functional. The settings on record: Ca9-22, 48 h.
A further series is filed under the species Homo sapiens. As to the kind of experiment: Selectivity ratio of IC50 for full length C-terminal His/FLAG-tagged human HDAC1 expressed in baculovirus expression system to IC50 full length N-terminal GST-tagged human HDAC6 expressed in baculovirus expression system.
The nature of series [2]: Mutagenicity in Salmonella typhimurium TA98 at 8 to 160 uM measured after 90 mins in presence of S9 fraction by Ames test. In kind it is toxicity, subcellular. The settings on record: salmonella enterica subsp. enterica serovar typhimurium, s9, 1.5 h, dose 8-160 µM.
Series [3] concerns KYSE-520 cell line. In words: Antiproliferative activity against human KYSE520 cells assessed as reduction in cell viability measured after 48 hrs by alamar blue dye based spectrofluorometry. In kind it is functional. The settings on record: KYSE-520, 48 h.
Series [4] can be described thus: Mutagenicity in Salmonella typhimurium TA100 at 8 uM measured after 90 mins in presence of S9 fraction by Ames test. In kind it is toxicity, subcellular. The settings on record: salmonella enterica subsp. enterica serovar typhimurium, s9, 1.5 h.
The target of another series is Histone deacetylase 1 (Homo sapiens, UniProt Q13547). In words: Inhibition of full length C-terminal His/FLAG-tagged human HDAC1 expressed in baculovirus expression system using ZMAL as substrate incubated for 90 mins by fluorescence assay.
Another series deals with OE33. As to the kind of experiment: Antiproliferative activity against human OE33 cells assessed as reduction in cell viability measured after 72 hrs by MTT assay. In kind it is functional, cell-based. The settings on record: OE33, 72 h.
In series [5] the test system is NB-4. As to the kind of experiment: Induction of apoptosis in human NB-4 cells assessed as increase in cleaved PARP expression at 10 uM measured after 24 to 48 hrs by Western blot analysis. Format: functional, cell-based. The note with it: time hrs 24-48.
Series [6] can be described thus: Antiproliferative activity against human TR-146 cells assessed as reduction in cell viability measured after 48 hrs by alamar blue dye based spectrofluorometry. Format: functional. The settings on record: TR146, 48 h.
A short description of series [7]: Cytotoxicity against mouse NIH3T3 cells assessed as reduction in cell viability measured after 24 hrs by neutral red uptake assay. In kind it is cell-based. The settings on record: read-out: TC50.
For series [8], the system named is KYSE-520 cell line. As to the kind of experiment: Induction of apoptosis human KYSE520 cells at 30 to 100 uM measured after 48 hrs by Annexin-V/propidium iodide staining based assay. The settings on record: dose microM 30-100, time 48.0 hrs. In kind it is functional, cell-based.
Series [9] is described as follows: Mutagenicity in Salmonella typhimurium TA100 at 8 uM measured after 90 mins in absence of S9 fraction by Ames test. The settings on record: salmonella enterica subsp. enterica serovar typhimurium, s9, 1.5 h. Format: toxicity.
In series [10] the test system is NB-4. As to the kind of experiment: Cell cycle arrest in human NB-4 cells at 5 to 10 uM measured after 24 to 48 hrs by propidium iodide staining based flow cytometry. In kind it is functional. The note with it: dose microM 5-10, time hrs 24-48.
The nature of series [11]: Mutagenicity in Salmonella typhimurium TA98 at 8 to 160 uM measured after 90 mins in absence of S9 fraction by Ames test. In kind it is toxicity. The settings on record: salmonella enterica subsp. enterica serovar typhimurium, s9, 1.5 h, dose 8-160 µM.
The subject of the next series is U-937. As to the kind of experiment: Cell cycle arrest in human U-937 cells assessed as reduction in accumulation at S-phase at 10 uM measured after 24 to 48 hrs by propidium iodide staining based flow cytometry. Format: functional. The settings on record: time hrs 24-48.

Active and inactive are the calls of the source. The calls are words filed in the database; no cut-off is given here.

Histone deacetylase 1, sequence (Q13547 whole entry): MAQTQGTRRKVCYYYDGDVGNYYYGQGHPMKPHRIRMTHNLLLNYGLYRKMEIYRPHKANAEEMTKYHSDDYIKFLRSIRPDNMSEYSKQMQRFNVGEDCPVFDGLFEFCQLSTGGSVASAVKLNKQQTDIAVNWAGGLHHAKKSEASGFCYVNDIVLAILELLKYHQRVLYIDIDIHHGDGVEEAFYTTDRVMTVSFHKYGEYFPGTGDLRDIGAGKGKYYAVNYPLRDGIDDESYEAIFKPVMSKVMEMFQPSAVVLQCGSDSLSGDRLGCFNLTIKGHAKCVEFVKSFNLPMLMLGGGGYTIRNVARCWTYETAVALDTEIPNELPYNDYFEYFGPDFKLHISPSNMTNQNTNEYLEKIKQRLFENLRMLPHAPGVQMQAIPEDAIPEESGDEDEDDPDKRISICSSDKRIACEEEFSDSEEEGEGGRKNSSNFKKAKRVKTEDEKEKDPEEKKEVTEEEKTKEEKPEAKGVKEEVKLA

In the case of `O=C(NO)c1ccc(CN2CCC3(CC2)CN(Cc2ccccc2)c2ccccc23)cc1`, the concentration for half-maximal inhibition (IC50) in series [1] came out at 0.561 µM; in the series on Ca9-22 it was 19 µM; in the series with KYSE-520 cell line [3] it was 12.8 µM; on Histone deacetylase 1, 6.5 µM; in the series on OE33 it was 5.56 µM; in series [6], 18 µM. In the series listed under Homo sapiens, the Ratio IC50 was found to be 12. Also, the Activity entry in [2] is reported as “Non-Toxic”; in series [4] it was “Toxic”; in series [9] it was “Toxic”; in series [11], “Non-Toxic”. Also, the outcome with NB-4 [5], in the series with KYSE-520 cell line [8], in the series on NB-4 [10] and in the series with U-937 was Active. Moreover, the CC50 at 24 h in [7] was 40 µM.
